US20100256243A1, “Dosing Regimen for the Treatment of Alzheimer's Disease With Sulfonyl Fluorides” (priority 2009, published 2010)
Substitutions are numbered along the chain they refer to. Values joined by “and” are separate entries in the source; they are usually repeats but may differ in a detail not shown here. Identical values can stand only once. “Also recorded” adds a separate entry of the source.

Key:
rats [1] = assay: Daily dosing with 1.0 mg/kg MSF/peanut oil in rats (clinical signs of distress and/or death); assay type: in vivo
rats [2] = assay: Alternating day dosing with 2.0 mg/kg MSF/peanut oil in rats (death); assay type: in vivo; conditions: 2 mg/kg every other day; for Number Alive/Numbered Treated / lethality: oral
Description: To confirm the “pulsing” theory for MSF administration, the inventor continued the experiment described above and extended MSF treatment to double the total lethal dose observed in Example 1 (from 4 mg/kg to 8 mg/kg). Rats in were treated at 2 mg/kg/every other day for 2 more round (total of 8 mg/kg in 8 days).

animals = assay: Acute oral toxicity (LD50) of MSF in animals; assay type: in vivo, rats
Description: The acute oral LD50, as indicated by the data, was determined to be greater than 3 mg/kg but less than 4 mg/kg.

[3] = molecular target: T1, brain acetylcholinesterase (Rattus norvegicus, UniProt P37136); conditions: cited from earlier work
T1 construct: host or cells: rodent brain, dosed in vivo
T1 sequence (P37136 32-614): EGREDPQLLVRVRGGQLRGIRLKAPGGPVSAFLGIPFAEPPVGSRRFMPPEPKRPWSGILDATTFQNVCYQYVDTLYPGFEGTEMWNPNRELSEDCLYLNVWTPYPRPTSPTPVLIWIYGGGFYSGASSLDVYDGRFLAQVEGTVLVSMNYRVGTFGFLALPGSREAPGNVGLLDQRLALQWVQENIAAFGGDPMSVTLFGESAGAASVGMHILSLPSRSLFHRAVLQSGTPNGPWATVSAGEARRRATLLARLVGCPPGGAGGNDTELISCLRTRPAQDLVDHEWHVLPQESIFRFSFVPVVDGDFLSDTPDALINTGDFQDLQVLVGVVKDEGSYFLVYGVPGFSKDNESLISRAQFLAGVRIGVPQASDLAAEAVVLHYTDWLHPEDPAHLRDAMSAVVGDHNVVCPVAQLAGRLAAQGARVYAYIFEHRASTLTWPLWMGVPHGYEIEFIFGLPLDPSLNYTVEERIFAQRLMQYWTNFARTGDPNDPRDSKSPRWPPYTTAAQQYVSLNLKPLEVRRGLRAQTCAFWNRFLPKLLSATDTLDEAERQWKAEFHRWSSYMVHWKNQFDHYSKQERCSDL

[4] = system: brain acetylcholinesterase; conditions: cited from earlier work
brain AChE [5] = molecular target: T2, brain AChE (Mus musculus, UniProt P21836); conditions: ex vivo, mice, without toxicity (Kobayashi et al., 1999); cited from earlier work
T2 construct: host or cells: mouse brain, ex vivo
T2 sequence (P21836 32-614): T1 sequence (P37136 32-614) with I59V, T109A, S128A, T144A, S271A, D313E, A392T, V467T, Q478K, R499Q

brain AChE [6] = molecular target: T3, brain AChE (Rattus norvegicus, UniProt P37136); conditions: ex vivo, rats, without toxicity (Moss et al., 1985); cited from earlier work
T3 construct: host or cells: rat brain, ex vivo
T3 sequence (P37136 32-614): T1 sequence (P37136 32-614)

[7] = molecular target: T4, acetylcholinesterase in the brain (Rattus norvegicus, UniProt P37136); conditions: cerebrally ischemic animals (U.S. Patent Publication 2003/0087959); cited from earlier work
T4 construct: host or cells: brain of cerebrally ischemic animals, dosed in vivo
T4 sequence (P37136 32-614): T1 sequence (P37136 32-614)

[8] = system: cerebrally ischemic animals; conditions: compared to untreated controls (U.S. Patent Publication 2003/0087959); cited from earlier work
brain AChE [9] = conditions: oral MSF 0.5 mg/kg daily, after 5 days of administration; cited from earlier work
[10] = system: enzyme in the periphery (cholinesterase); conditions: rodents, administered daily at low doses (Moss et al., 1988); cited from earlier work
human cortex AChE = molecular target: T5, human cortex AChE (Homo sapiens, UniProt P22303); conditions: in vitro (Pacheco et al., 1995); cited from earlier work
T5 construct: host or cells: human cortex, in vitro

rats [11] = conditions: daily doses (Palacios-Esquivel et al., 1993); cited from earlier work
aged rats = conditions: daily doses (Malin et al., 1993); cited from earlier work
rats [12] = conditions: daily doses (Borlongan et al., 2005); cited from earlier work
[13] = system: patients with senile dementia of Alzheimer type; conditions: patients with senile dementia of Alzheimer type (U.S. Pat. No. 5,798,392); cited from earlier work
[14] = system: septal choline acetyltransferase; conditions: cerebrally ischemic animals, versus vehicle-treated animals (U.S. Patent Publication 2003/0087959); cited from earlier work
[15] = relatively small doses over a long period of time (Moss et al., 1988; 1985)

T5 sequence (P22303 32-614): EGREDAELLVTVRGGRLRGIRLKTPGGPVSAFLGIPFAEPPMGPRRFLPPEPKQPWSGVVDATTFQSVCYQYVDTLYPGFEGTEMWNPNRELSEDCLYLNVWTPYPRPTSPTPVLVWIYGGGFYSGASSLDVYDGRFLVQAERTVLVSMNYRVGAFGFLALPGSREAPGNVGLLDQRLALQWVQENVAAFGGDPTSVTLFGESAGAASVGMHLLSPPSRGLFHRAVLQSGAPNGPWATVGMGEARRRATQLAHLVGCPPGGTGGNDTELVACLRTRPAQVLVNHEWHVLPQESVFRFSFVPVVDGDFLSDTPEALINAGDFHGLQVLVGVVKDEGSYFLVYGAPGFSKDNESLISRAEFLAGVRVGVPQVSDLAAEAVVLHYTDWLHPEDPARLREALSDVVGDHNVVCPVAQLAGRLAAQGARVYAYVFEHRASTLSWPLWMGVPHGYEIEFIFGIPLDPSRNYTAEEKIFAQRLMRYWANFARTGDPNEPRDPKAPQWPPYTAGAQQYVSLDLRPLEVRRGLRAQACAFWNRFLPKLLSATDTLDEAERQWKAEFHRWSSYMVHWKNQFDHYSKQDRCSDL

CS(=O)(=O)F [MSF, methanesulfonyl fluoride]
clinical signs of distress and/or death (rats [1]; oral gavage, 1.0 mg/kg daily, MSF/peanut oil 1.0 mg/ml, 1 mg/kg): high toxicity and animal deaths
Number Alive/Numbered Treated (rats [1]; oral, 1 mg/kg daily, 4 days): 0/7 (4 males + 3 female)
animals survived (rats [2]; total of 8 mg/kg in 8 days): 83.3%
Number Alive/Numbered Treated (rats [2]; 4 days (total 4 mg/kg)): 6/6 (3 males + 3 female)
lethality (rats [2]; 4 days (total 4 mg/kg)): no lethal event; also recorded: By Day 4, all rats were alive and it was decided to continue the treatment
Number Alive/Numbered Treated (rats [2]; 8 days (total 8 mg/kg)): 5/6 (3 males + 3 female) and 5/6
lethality (rats [2]; 8 days (total 8 mg/kg), follow-up over two weeks): 1 animal was found dead
Number Dead/Number Treated, Combination (animals; 1 mg/kg (0.4 mg/mL)): 0/10
Number Dead/Number Treated, Females (animals; 1 mg/kg (0.4 mg/mL)): 0/5
Number Dead/Number Treated, Males (animals; 1 mg/kg (0.4 mg/mL)): 0/5
Number Dead/Number Treated, Combination (animals; 2 mg/kg (0.8 mg/mL)): 0/10
Number Dead/Number Treated, Females (animals; 2 mg/kg (0.8 mg/mL)): 0/5
Number Dead/Number Treated, Males (animals; 2 mg/kg (0.8 mg/mL)): 0/5
Number Dead/Number Treated, Combination (animals; 3 mg/kg (1.2 mg/mL)): 1/10
Number Dead/Number Treated, Females (animals; 3 mg/kg (1.2 mg/mL)): 1/5
Number Dead/Number Treated, Males (animals; 3 mg/kg (1.2 mg/mL)): 0/5
Number Dead/Number Treated, Combination (animals; 4 mg/kg (1.6 mg/mL)): 10/10
Number Dead/Number Treated, Females (animals; 4 mg/kg (1.6 mg/mL)): 5/5
Number Dead/Number Treated, Males (animals; 4 mg/kg (1.6 mg/mL)): 5/5
inhibition of rodent brain acetylcholinesterase [3, 15]: 80-90%
inhibition of brain cholinesterase (average) ([3]; rodents, administered daily at low doses (Moss et al., 1988)): 90%
inhibition of brain AChE ([4]; ex vivo, monkey cortex, without toxicity (Moss et al., 1988)): up to 80%
inhibition of monkey brain acetylcholinesterase [4, 15]: 80-90%
inhibition of brain AChE (brain AChE [5]): up to 80%
inhibition of brain AChE (brain AChE [6]): up to 80%
inhibition of acetylcholinesterase in the brain [7]: about 90%
cognitive performance [8]: improved cognitive performance
inhibition in the brain (brain AChE [9]): 90%
inhibition of enzyme in the periphery [10]: less than 30%
selectivity for inhibition of human cortex AChE compared to butyrylcholinesterase (human cortex AChE): highly selective
reversing scopolamine-induced amnesia (rats [11]): highly effective
reversing normal age-related memory impairment (aged rats): highly effective
reversing ischemia-induced cognitive deficits (rats [12]): highly effective
cognitive performance in patients [13]: improvement in cognitive performance
septal choline acetyltransferase immunoreactivity [14]: more intense septal choline acetyltransferase immunoreactivity
